Values joined by “and” are separate entries in the source; they are usually repeats but may differ in a detail not shown here. Identical values can stand only once. Inconclusive results and toxic doses are left out. Rule for the calls: active = survival T/C of 150% or more; inactive = T/C below 125% in these data.
Tested on: CD2F1 mice, L1210 leukemia ip, survival T/C
Experiment: NCI In Vivo Anticancer Drug Screen. Data for tumor model L1210 Leukemia (intraperitoneal) in CD2F1 (CDF1) mice
Details: higher = longer survival
How it was run: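 Tumor-bearing mice (transplanted tumor) were split into treated and vehicle control groups, and the measured endpoint of each treated group was divided by that of its vehicle controls.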

[1] = endpoint: mean survival time, dose: 50.0 mg/kg/injection, schedule: Q01DX009 (ip), vehicle: saline with Tween-80
[2] = endpoint: mean survival time, dose: 100.0 mg/kg/injection, schedule: Q01DX009 (ip), vehicle: saline with Tween-80
[3] = endpoint: mean survival time, dose: 200.0 mg/kg/injection, schedule: Q01DX009 (ip), vehicle: saline with Tween-80
[4] = endpoint: mean survival time, dose: 100.0 mg/kg/injection, schedule: Q04DX003 (ip), vehicle: saline with Tween-80
[5] = endpoint: mean survival time, dose: 200.0 mg/kg/injection, schedule: Q04DX003 (ip), vehicle: saline with Tween-80
[6] = endpoint: mean survival time, dose: 400.0 mg/kg/injection, schedule: Q04DX003 (ip), vehicle: saline with Tween-80
[7] = endpoint: mean survival time, dose: 75.0 mg/kg/injection, schedule: Q01DX001 (ip), vehicle: saline with Tween-80
[8] = endpoint: mean survival time, dose: 150.0 mg/kg/injection, schedule: Q01DX001 (ip), vehicle: saline with Tween-80
[9] = endpoint: mean survival time, dose: 300.0 mg/kg/injection, schedule: Q01DX001 (ip), vehicle: saline with Tween-80
[10] = endpoint: mean survival time, dose: 25.0 mg/kg/injection, schedule: Q04DX003 (ip), vehicle: saline with Tween-80
[11] = endpoint: mean survival time, dose: 50.0 mg/kg/injection, schedule: Q04DX003 (ip), vehicle: saline with Tween-80
[12] = endpoint: mean survival time, dose: 100.0 mg/kg/injection, schedule: Q01DX001 (ip), vehicle: saline with Tween-80
[13] = endpoint: mean survival time, dose: 100.0 mg/kg/injection, schedule: Q04DX002 (ip), vehicle: saline with Tween-80
[14] = endpoint: mean survival time, dose: 200.0 mg/kg/injection, schedule: Q01DX001 (ip), vehicle: saline with Tween-80
[15] = endpoint: mean survival time, dose: 200.0 mg/kg/injection, schedule: Q04DX002 (ip), vehicle: saline with Tween-80
[16] = endpoint: mean survival time, dose: 400.0 mg/kg/injection, schedule: Q01DX001 (ip), vehicle: saline with Tween-80
[17] = endpoint: mean survival time, dose: 400.0 mg/kg/injection, schedule: Q04DX002 (ip), vehicle: saline with Tween-80
[18] = endpoint: mean survival time, dose: 12.5 mg/kg/injection, schedule: Q04DX003 (ip), vehicle: saline with Tween-80
[19] = endpoint: mean survival time, dose: 50.0 mg/kg/injection, schedule: Q04DX002 (ip), vehicle: saline with Tween-80
[20] = endpoint: mean survival time, dose: 400.0 mg/kg/injection, schedule: Q01DX009 (ip), vehicle: saline with Tween-80
[21] = endpoint: mean survival time, dose: 200.0 mg/kg/injection, schedule: Q04DX003 (ip), vehicle: saline sonified

Measured: T/C

CC1(C)OC2C(CO)OC(n3nc(SCc4ccccc4)c(=S)[nH]c3=O)C2O1 (configuration not stated)
inactive: endpoint: median survival time, dose: 12.5 mg/kg/injection, schedule: Q01DX005 (ip), vehicle: distilled water + Tween-80 96 % of control | endpoint: median survival time, dose: 25.0 mg/kg/injection, schedule: Q01DX005 (ip), vehicle: distilled water + Tween-80 103 % of control | endpoint: median survival time, dose: 50.0 mg/kg/injection, schedule: Q01DX005 (ip), vehicle: distilled water + Tween-80 96 % of control | endpoint: median survival time, dose: 100.0 mg/kg/injection, schedule: Q01DX005 (ip), vehicle: distilled water + Tween-80 96 % of control | endpoint: median survival time, dose: 200.0 mg/kg/injection, schedule: Q01DX005 (ip), vehicle: distilled water + Tween-80 95 % of control

COc1ccc(OCCOC(=O)Nc2c(Cl)cccc2Cl)cc1
inactive: [1] 98 % of control | [2] 94 % of control | [3] 94 % of control

CC(C)C(=O)Nc1cccc(Cl)c1
inactive: [4] 97 % of control | [5] 97 % of control | [6] 94 % of control

O=C1c2ccccc2C(=O)c2c(NCCN3CCCCC3)ccc(NCCN3CCCCC3)c21
inactive: endpoint: mean survival time, dose: 8.0 mg/kg/injection, schedule: Q01DX009 (ip), vehicle: acid diluted with saline 100 % of control | endpoint: mean survival time, dose: 16.0 mg/kg/injection, schedule: Q01DX009 (ip), vehicle: acid diluted with saline 102 % of control | endpoint: mean survival time, dose: 32.0 mg/kg/injection, schedule: Q01DX009 (ip), vehicle: acid diluted with saline 110 % of control | endpoint: mean survival time, dose: 64.0 mg/kg/injection, schedule: Q01DX009 (ip), vehicle: acid diluted with saline 104 % of control

OCC1OC(n2cc(I)c3c2ncn2nnnc32)C(O)C1O (configuration not stated)
inactive: endpoint: mean survival time, dose: 1.56 mg/kg/injection, schedule: Q01DX005 (ip), vehicle: water 88 % of control | endpoint: mean survival time, dose: 3.13 mg/kg/injection, schedule: Q01DX005 (ip), vehicle: water 95 % of control | endpoint: mean survival time, dose: 6.25 mg/kg/injection, schedule: Q01DX005 (ip), vehicle: water 95 % of control | endpoint: mean survival time, dose: 12.5 mg/kg/injection, schedule: Q01DX005 (ip), vehicle: water 98 % of control | endpoint: mean survival time, dose: 25.0 mg/kg/injection, schedule: Q01DX005 (ip), vehicle: water 87 % of control and 97 % of control | endpoint: mean survival time, dose: 50.0 mg/kg/injection, schedule: Q01DX005 (ip), vehicle: water 97 % of control

COC1OC2COc3ccccc3OC2C(N)C1Nc1ccccc1 (configuration not stated)
inactive: [7] 101 % of control | [8] 101 % of control | [9] 100 % of control

O=C(O)C(Br)(Br)Br.[Ag]
inactive: [4] 92 % of control | [5] 89 % of control | [6] 97 % of control

CCOC(=O)c1ccc(NC(=O)Nc2ccc(N(C)C(C)=O)cc2)cc1
inactive: [10] 98 % of control | [1] 87 % of control | [11] 96 % of control | [12] 100 % of control | [2] 87 % of control and 101 % of control | [13] 90 % of control and 97 % of control | [4] 94 % of control and 109 % of control | [14] 97 % of control | [3] 90 % of control and 91 % of control | [15] 87 % of control and 91 % of control | [5] 104 % of control | [16] 102 % of control | [17] 88 % of control and 94 % of control

CC1CCC2N(C1)CC1C(C(O)C(O)C3(O)C1CC14OC5(O)C(O)CCC1(C)C5CC(O)C34)C2(C)O (configuration not stated)
inactive: [1] 105 % of control | [2] 116 % of control | [3] 105 % of control

CC(=O)NC1C(OC(C)=O)OC(COC(c2ccccc2)(c2ccccc2)c2ccccc2)C(O)C1OC(C)=O (configuration not stated)
inactive: endpoint: mean survival time, dose: 12.5 mg/kg/injection, schedule: Q04DX002 (ip), vehicle: saline with Tween-80 93 % of control | [18] 103 % of control | [10] 95 % of control | endpoint: mean survival time, dose: 50.0 mg/kg/injection, schedule: Q01DX001 (ip), vehicle: saline with Tween-80 88 % of control | [19] 91 % of control | [11] 87 % of control | [12] 87 % of control | [13] 88 % of control | [4] 93 % of control | [14] 88 % of control | [16] 90 % of control

COC(=O)C1OC(OC(C)=O)C(OC(C)=O)C(OC(C)=O)C1C(=O)OC (configuration not stated)
inactive: [12] 93 % of control | [2] 101 % of control | [14] 95 % of control | [3] 105 % of control | [16] 93 % of control | [20] 105 % of control

COc1cc2c(cc1OC)C(OC)N(C)c1c-2ccc2cc3c(cc12)OCO3 (configuration not stated)
inactive: endpoint: mean survival time, dose: 3.13 mg/kg/injection, schedule: Q01DX009 (ip), vehicle: water 117 % of control | endpoint: mean survival time, dose: 6.25 mg/kg/injection, schedule: Q01DX009 (ip), vehicle: water 121 % of control | endpoint: mean survival time, dose: 12.5 mg/kg/injection, schedule: Q01DX009 (ip), vehicle: water 123 % of control | endpoint: mean survival time, dose: 25.0 mg/kg/injection, schedule: Q01DX009 (ip), vehicle: water 121 % of control

COc1ccc(OC)c(NC(=S)NC(=O)c2cccc(Br)c2)c1
inactive: [12] 93 % of control | [2] 95 % of control and 96 % of control | [13] 94 % of control and 100 % of control | [4] 95 % of control | [14] 88 % of control | [3] 95 % of control and 100 % of control | [15] 94 % of control and 100 % of control | [5] 91 % of control | [16] 89 % of control | [20] 92 % of control and 100 % of control | [17] 89 % of control and 100 % of control | [6] 95 % of control

CCOC(=O)CCC(C(=O)OCC)N1C(=O)c2ccccc2C1=O (configuration not stated)
inactive: endpoint: mean survival time, dose: 25.0 mg/kg/injection, schedule: Q04DX002 (ip), vehicle: saline with Tween-80 100 % of control | [19] 103 % of control | [13] 100 % of control

NC(=O)c1ncn(C2OC(CO)C(O)C2O)n1 (configuration not stated)
inactive: [2] 124 % of control | endpoint: mean survival time, dose: 100.0 mg/kg/injection, schedule: Q04DX003 (ip), vehicle: saline 100 % of control | [3] 110 % of control | endpoint: mean survival time, dose: 200.0 mg/kg/injection, schedule: Q04DX003 (ip), vehicle: saline 115 % of control | [20] 93 % of control | endpoint: mean survival time, dose: 400.0 mg/kg/injection, schedule: Q04DX003 (ip), vehicle: saline 110 % of control

CN(C)c1ccc(N=Nc2cccnc2)cc1
inactive: [12] 97 % of control | [14] 97 % of control

OCCNc1c(Cl)ccc(Cl)c1Cl
inactive: [1] 107 % of control | [2] 103 % of control | [3] 98 % of control

O=C(CBr)Nc1c2c(nc3ccccc13)CCCC2
inactive: [7] 101 % of control | [8] 104 % of control | [9] 94 % of control

c1cc2c(c(NC3=NCCCO3)c1)CCCC2
inactive: [18] 97 % of control | [10] 106 % of control | [11] 101 % of control

NC(=O)c1ncc(-c2ccc(Cl)cc2)[nH]c1=O
inactive: endpoint: mean survival time, dose: 100.0 mg/kg/injection, schedule: Q04DX003 (ip), vehicle: saline sonified 94 % of control | [21] 93 % of control | endpoint: mean survival time, dose: 400.0 mg/kg/injection, schedule: Q04DX003 (ip), vehicle: saline sonified 96 % of control

O.O=C(O)CN(CCN(CC(=O)O)CC(=O)O)CC(=O)O.[Rh+2]
inactive: endpoint: mean survival time, dose: 100.0 mg/kg/injection, schedule: Q01DX009 (ip), vehicle: saline 100 % of control | endpoint: mean survival time, dose: 200.0 mg/kg/injection, schedule: Q01DX009 (ip), vehicle: saline 94 % of control | [21] 95 % of control | endpoint: mean survival time, dose: 400.0 mg/kg/injection, schedule: Q01DX009 (ip), vehicle: saline 96 % of control

O=C(Nc1ccc(F)cc1)c1cccc(C(=O)Nc2ccc(F)cc2)c1
inactive: endpoint: mean survival time, dose: 25.0 mg/kg/injection, schedule: Q01DX009 (ip), vehicle: saline with Tween-80 95 % of control | [1] 94 % of control | [2] 94 % of control

CCOC(=O)CCC(NC(=O)c1ccc(NCC2CCc3nc(N)[nH]c(=O)c3N2)cc1)C(=O)OCC (configuration not stated)
inactive: endpoint: median survival time, dose: 10.0 mg/kg/injection, schedule: Q01DX005 (ip), vehicle: distilled water + Tween-80 97 % of control | endpoint: median survival time, dose: 20.0 mg/kg/injection, schedule: Q01DX005 (ip), vehicle: distilled water + Tween-80 102 % of control | endpoint: median survival time, dose: 40.0 mg/kg/injection, schedule: Q01DX005 (ip), vehicle: distilled water + Tween-80 100 % of control | endpoint: median survival time, dose: 80.0 mg/kg/injection, schedule: Q01DX005 (ip), vehicle: distilled water + Tween-80 96 % of control | endpoint: median survival time, dose: 160.0 mg/kg/injection, schedule: Q01DX005 (ip), vehicle: distilled water + Tween-80 100 % of control

CC1(C)N=C(N)N=C(N)N1c1cccc(CCCCc2ccc(S(=O)(=O)F)cc2)c1
inactive: endpoint: mean survival time, dose: 25.0 mg/kg/injection, schedule: Q01DX009 (ip), vehicle: saline 105 % of control

Source: PubChem BioAssay AID256 (DTP/NCI, 2004)
